Series [1] deals with Escherichia coli (E. coli, ATCC 25922). The series can be described thus: MIC test, modified broth microdilution. The format is cell-based. The note with it: read-out: Minimal inhibitory concentration (MIC) against E. coli. The method, then: (§1) All bacteria cells were first pre-grown overnight on blood agar plates at 37°C in a bacteriological incubator. Next, a single colony was transferred into fresh Muller Hinton broth (MHB) medium and harvested by centrifugation during the exponential growth phase, before being resuspended in sterile 0.9% physiological saline. Finally, bacterial cells were adjusted to the 0.5 McFarland standard (1.5 × 10^8 CFU/mL), and the solution was diluted in MHB to the predetermined concentrations.
(§2) MICs of all materials against MRSA, E. coli, and P. aeruginosa strains were determined using a modified broth microdilution method ([28]). Briefly, log-phase cultures (1.0 × 10⁶ CFU/mL) of each strain were inoculated into 96-well microtiter plates preloaded with serially diluted test compounds.
Background: Broth dilution looks for growth in wells or tubes with falling amounts of substance.

Another series has as its system MRSA (ATCC 43300). The series is described as follows: MIC test, modified broth microdilution. The format is cell-based. The following applies: Staphylococcus aureus, 24 h. The method, then:
as §1, §2

Series [2] can be described thus: Cytotoxicity assay (CCK-8). The note with it: mouse. Here is the method:
(§3) The cytotoxicity of the nanocomposite was evaluated by CCK-8 assay using a commercial kit (CK04; Dojindo, Japan). […] Cell viability was calculated according to the following formula: cell viability (%) = (Ae − Ab)/(Ac − Ab) × 100% (Ab:OD of blank wells at 450 nm, Ac:OD of control wells at 450 nm, Ae:OD of experimental wells at 450 nm).

Series [3] concerns Pseudomonas aeruginosa (P. aeruginosa, ATCC 27853). The series can be described thus: MIC test, modified broth microdilution. The format is cell-based. The following applies: ATCC27853, 24 h. Here is the method:
as §1, §2

In series [4] the test system is MRSA biofilm. The series is described as follows: Resazurin staining, metabolic activity of bacteria within biofilms. The format is cell-based, Staphylococcus aureus. The following applies: 24 h. Here is the method:
The metabolic activity of bacteria within biofilms was tested using resazurin (Sigma Aldrich, St. Louis, MO, USA), as previous report with slightly modified ([33]). Bacterial suspensions were exposed to graded concentrations (range 4–32 μg/mL) of [PTPP]·I in MHB broth for 24 h at 37°C. After incubation, the wells were washed three times with PBS and 0.01% final concentration of resazurin (Sigma Aldrich, St. Louis, MO, USA) was added, followed by an incubation for 1 h. Finally, the absorbance was detected in a Multi-mode detection platform (Molecular Devices, SpectraMax i3x) in fluorescence mode with excitation at 570 nm and emission at 600 nm. Bacterial suspensions without [PTPP]·I were set as a positive control, and pure MHB broth was set as a blank control, which were taken as 100% and 0% metabolic activity, respectively. Metabolic activity was calculated according to the following formula: metabolic activity (%) = (ΔAbs of sample − ΔAbs of blank control)/(ΔAbs of positive control − ΔAbs of blank control); ΔAbs = absorbance at 570 nm − absorbance at 600 nm.
(Resazurin is reduced to fluorescent resorufin, in cell work by metabolically active cells.)

The test system of series [5] is MRSA. The series is described as follows: Protein leakage assay (Bradford). The note with it: 32 µg/mL (2 × MIC), 24 h. The format is cell-based, Staphylococcus aureus. Here is the method:
The quantitative detection of protein leakage of bacteria was carried out by protein leakage assay using a Bradford Protein Assay Kit (P0006; Beyotime, Nantong, China). […] The bacterial solution without [PTPP]·I was used as a control. The mixture was incubated in a shaker at 37°C for 24 h and then centrifuged at 10,000 rpm at 4°C for 10 min. The supernatant was immediately collected, and protein detection reagent was added to determine the optical density (OD 600) using a Microplate Reader (Thermo Fisher Scientific, Multiskan GO) and finally converted to protein concentration values based on the standard curve.

The test system of series [6] is MRSA biofilm. The series can be described thus: Crystal violet staining of biofilm formation. The format is cell-based, Staphylococcus aureus. The note with it: 24 h. Here is the method:
Crystal violet staining was performed by the method reported previously to measure the anti-biofilm effect of [PTPP]·I ([32]). […] A parallel study was also performed with LB broth as a blank control and the MRSA suspension was cultured in an empty well as a positive control. After incubation, the non-adhered bacteria were removed by gently washing with PBS at least three times, and the adherent biofilm was fixed with methanol for 15 min and stained with 0.1% (wt/vol) crystal violet for another 15 min. Then the excess crystal violet was removed by repeatedly washing with PBS until the blank control wells were colorless. Finally, crystal violet bound to the biofilm was dissolved in 500 µL 95% ethanol and added into 96-well plates to measure the absorbance at 595 nm using a Microplate Reader (Thermo Fisher Scientific, Waltham, MA, USA).

The test system of series [7] is MRSA. The series is described as follows: Agar diffusion test. The note with it: 10 µL of 512 µg/mL on 6.0 mm disc, overnight 37°C. The format is cell-based, Staphylococcus aureus. Here is the method: Bacterial suspensions (1.5 × 10^8 CFU/mL) were spread onto Mueller-Hinton (M-H) agar plates using sterile cotton swabs to form a uniform carpet. A 10 µL solution of each of the five nanomaterials at a concentration of 512 µg/mL, along with PBS, was carefully applied to the surface of filter paper discs (6.0 mm in diameter), which were then placed onto M-H agar plates and incubated overnight at 37°C. Inhibition zones appeared as transparent halos on the agar surface.
On the technique in general: Agar diffusion results depend on both activity and mobility in agar.

For series [8], the system named is MRSA. The series is described as follows: Bacterial growth curve study (OD600). The format is cell-based, Staphylococcus aureus. Here is the method:
Bacterial growth curve of [PTPP]·I against MRSA cells was determined by the method reported previously ([29]). […] The bacterial solution without [PTPP]·I was used as a positive control. OD values were continuously measured for 36 h at hourly intervals to construct bacterial growth curves.

Series [9] relates to MRSA. The series can be described thus: SEM of bacterial morphology and bacterial biofilm. The format is cell-based, Staphylococcus aureus. The following applies: 24 h. The method, then: Scanning electron microscopy was used to observe bacterial morphology and bacterial biofilm formation. […] Samples were then washed with PBS and dehydrated in a graded ethanol series (30%, 50%, 70%, 80%, 90%, 95%, and 100%). After lyophilization and gold spraying, the MRSA cells were visualized by SEM (SU8100, Hitachi, Tokyo, Japan). Bacterial biofilms were subjected to SEM as previously reported with slight modifications ([31]). Cell crawling pieces were incubated in 1 mL of MRSA solution (1 × 10^6 CFU/mL) in a 24-well plate. […] After 24 h of incubation at 37°C, the samples were processed as described above and the MRSA biofilms on the cell crawling pieces were observed by scanning electron microscopy.

For series [10], the system named is MRSA. The series is described as follows: Reactive oxygen species assay (DCFH-DA). The format is cell-based, Staphylococcus aureus. The note with it: 0.5 h. The method, then: The level of bacterial ROS induced by [PTPP]·I was detected by DCFH-DA assay (Reactive Oxygen Species Assay Kit, S0033S, Beyotime), as previously reported ([18]). Briefly, MRSA (1 × 10^8 CFU/mL) was inoculated with 10 µM of DCFH-DA in a centrifuge tube at 37°C for 30 min for probe loading. […] The bacterial solution without [PTPP]·I was included to use as a control. The samples were washed three times with sterile saline solution (0.9% NaCl). Finally, the level of bacterial total ROS was measured as the relative fluorescence intensity of the probes, which was detected in a Multi-mode detection platform (Molecular Devices, SpectraMax i3x) in fluorescence mode with excitation at 488 nm and emission at 525 nm.

Series [11] has as its system MRSA. The series is described as follows: Time-kill kinetics assay (colony counting). The format is cell-based, Staphylococcus aureus. Here is the method:
The bactericidal kinetics assay was carried out with a few minor modifications as previously stated to reveal the antimicrobial effectiveness of [PTPP]·I over time ([30]). […] Bacteria were sampled every 1 h from 0 h to 6 h, diluted in a gradient, and incubated in Luria-Bertani (LB) plates at 37°C for 24 h. Finally, plates with around 30 to 300 colonies were counted and CFU/mL for each time point was calculated to construct time-kill curves. After 3 h of treatment with different concentrations of [PTPP]·I, the bacterial solution was put into PBS for several consecutive 10-fold dilutions, and 100 µL of the mixture was uniformly spread on LB agar plates and then allowed to dry for a little while. The LB agar plates were placed in a constant-temperature incubator at 37°C for 24 h, and then the colonies on the LB agar plates were counted and photographed to observe the changes in the morphology and size of MRSA colonies.

A further series has as its system L929 cells. The series can be described thus: Cytotoxicity assay (CCK-8). The note with it: at the concentration of MIC, 24 h, CCK-8. The method, then: as §3
[12] abbreviates: ATCC25922, broth microdilution, 37°C, 24 h.
[13] abbreviates: broth microdilution, 37°C, read-out: Minimal inhibitory concentration (MIC) against MRSA.
[14] abbreviates: L929 cells, Cell viability of L929 cells, at the concentration of MIC, 24 h, CCK-8.

Where two headings read alike, the source gives them in different places.

Consider `CCCC[P+](c1ccccc1)(c1ccccc1)c1ccccc1` [[BTPP]·I, n-butyl-triphenyl-phosphonium iodide], for which the MIC in series [1] (setting [12]) was not above 512 µg/mL; in the series with MRSA (ATCC 43300) (setting [13]), not above 32 µg/mL. In addition, the viability at 24 h in series [2] (setting [14]) is approximately 95%.

`CC[P+](c1ccccc1)(c1ccccc1)c1ccccc1` [[ETPP]·I, ethyl-triphenyl-phosphonium iodide]: the MIC in series [3] (broth microdilution, 37°C, 24 h, read-out: Minimal inhibitory concentration (MIC) against P. aeruginosa) was 8000 µg/mL; in series [1] (setting [12]), not above 512 µg/mL; with MRSA (ATCC 43300) (setting [13]), not above 64 µg/mL. This molecule also gave a viability at 24 h in series [2] (setting [14]) of approximately 90%.

Turning to `CCCCC[P+](c1ccccc1)(c1ccccc1)c1ccccc1` [[PTPP]·I, n-pentyl-triphenyl-phosphonium iodide], the “Metabolic activity of biofilm bacteria, of positive control” value with MRSA biofilm [4] (1/2 × MIC) is listed as “more than 50%”. Also, the “Metabolic activity of intra-film bacteria, of positive control” value with MRSA biofilm [4] (1 × MIC) is listed as 1%. In addition, the “Protein leakage relative to control group” value with MRSA [5] is on record as “about 2.6 times”. In the series on MRSA biofilm [6] (1/2 × MIC), the “Reduction of biofilm biomass” value is 35.4%. In addition, the “Reduction of biofilm biomass (biofilm inhibition rate)” value with MRSA biofilm [6] (1 × MIC) is given as 96.6%. Besides, the “Inhibition halos against MRSA” value in the series on MRSA [7] is on record as “obvious inhibition halos”. Also, the “Bacterial growth (OD600)” value with MRSA [8] (2 µg/mL (1/8 × MIC) to 16 µg/mL (1 × MIC)) is “significantly inhibited”. The “Lag phase of MRSA growth” value in the series with MRSA [8] (at 1/2 × MIC) was “up to 10 h”. Moreover, the MIC in [1] (setting [12]) was not above 512 µg/mL; in the series on MRSA (ATCC 43300) (setting [13]) it was 16 µg/mL. In the series on MRSA [9] (16 µg/ml (1 × MIC)), the “Biofilm on cell crawling pieces by SEM” value is listed as “no biofilm but only the residue of bacterial disruption”. Moreover, the “Bacterial morphology by SEM” value with MRSA [9] (32 µg/mL (2 × MIC)) is “membranes/walls of MRSA cells became rough and concave, holes appeared”. For the same molecule, the “ROS level elevation vs the control group” value in the series on MRSA [10] (1 × MIC) is 20%; with MRSA [10] (2 × MIC), 30%; with MRSA [10] (4 × MIC), 141%. Also, in the series on MRSA [11] (1 × MIC), the “Time to achieve survival rate less than 1%” value was 6 h. Moreover, the “Reduction of viable count” value in the series on MRSA [11] (1 × MIC, within 1 h) was “approximately 1 log10 CFU/mL”. For the same molecule, in the series on MRSA [11] (4 × MIC for 2 h), the Survival rate entry is reported as “less than 1%”. The molecule further returned a viability at 24 h in [2] (setting [14]) of more than 97%. Further, the “Cell viability of L929 cells” value in the series with L929 cells is on record as 97%.

As to `CC(C)[P+](c1ccccc1)(c1ccccc1)c1ccccc1` [[ITPP]·I, i-propyl-triphenyl-phosphonium iodide], the MIC was not above 512 µg/mL in series [1] (setting [12]) and not above 64 µg/mL with MRSA (ATCC 43300) (setting [13]). This molecule also gave a viability at 24 h in series [2] (setting [14]) of approximately 95%.

In the case of `C[P+](c1ccccc1)(c1ccccc1)c1ccccc1` [[MTPP]·I, methyl-triphenyl-phosphonium iodide], the MIC was 8000 µg/mL in series [3] (read-out: Minimal inhibitory concentration (MIC) against P. aeruginosa, broth microdilution, 37°C, 24 h); not above 512 µg/mL in series [1] (ATCC25922, 24 h); 128 µg/mL in the series on MRSA (ATCC 43300) (read-out: Minimal inhibitory concentration (MIC) against MRSA, broth microdilution, 37°C, 24 h). Moreover, the viability at 24 h in series [2] was approximately 90%.

A word on the viability: it is the share of living cells, or the viability signal relative to a control. High values mean better survival, low ones a greater loss of cells.

For the origin of these results see article PMC12671080, “Antimicrobial activities of quaternary phosphonium-type small molecular antibacterial materials against methicillin-resistant Staphylococcus aureus” (Microbiology Spectrum, 2025).
